{"source": "patent US20210032304A1", "about": "“FIBROBLAST GROWTH FACTOR ANALOGS AND USES THEREOF” (University of Florida Research Foundation, Inc., priority 2018, published 2021)", "key": {"[1]": {"tested_on": "radiation damage (sub-TBI) in Swiss male mice", "experiment": "Sub-TBI irradiation model, survival and body weight over 30 days", "assay_type": "in vivo", "conditions": "for dose needed to gain survival benefit: sub-TBI NIH Swiss model", "description": "150 outbred stock (NIS) Swiss males (8-11 weeks) were subjected to 5 sub-TBI doses (0, 18, 19.5, 20.5, 21.5 Gy). Three single dosages of FGF-P were administered 24 hr post-IR (5.0, 10, and 20 mg/kg), and two single dosages of FGF-PT were administered 24 hr post-IR (10 and 20 mg/kg). One dosage of FGF2 (0.3 mg/kg) and a saline vehicle control was also administered. Animals were followed for signs of distress, survivors, and weight loss/gain for 30 days. Survivors at the end of 30 days were euthanized.\nRadiation doses were chosen to bracket the highest dose with few or no deaths (LD20) and the lowest dose with few or no survivors (LD80), thus ensuring a range that includes the LD50 and statistically delivers the highest accuracy and precision per animal."}, "FGFR-1 alpha IIIc [2]": {"target": "T1, FGFR-1 alpha IIIc (Homo sapiens, UniProt P11362)", "experiment": "SPR (Horiba XelPlex), receptor immobilised, analyte in flow; given as 'associative binding constants'"}, "FGFR-2 alpha IIIc": {"target": "FGFR-2 alpha IIIc (Homo sapiens, UniProt P21802)", "experiment": "SPR (Horiba XelPlex), receptor immobilised, analyte in flow; given as 'associative binding constants'"}, "FGFR-1 alpha IIIc [3]": {"target": "T1, FGFR-1 alpha IIIc", "experiment": "SPR (Horiba XelPlex), ratio to rhFGF2 on the same receptor"}, "[4]": {"target": "T2, FGFR-1 alpha IIIb, P11362", "T2 chain": "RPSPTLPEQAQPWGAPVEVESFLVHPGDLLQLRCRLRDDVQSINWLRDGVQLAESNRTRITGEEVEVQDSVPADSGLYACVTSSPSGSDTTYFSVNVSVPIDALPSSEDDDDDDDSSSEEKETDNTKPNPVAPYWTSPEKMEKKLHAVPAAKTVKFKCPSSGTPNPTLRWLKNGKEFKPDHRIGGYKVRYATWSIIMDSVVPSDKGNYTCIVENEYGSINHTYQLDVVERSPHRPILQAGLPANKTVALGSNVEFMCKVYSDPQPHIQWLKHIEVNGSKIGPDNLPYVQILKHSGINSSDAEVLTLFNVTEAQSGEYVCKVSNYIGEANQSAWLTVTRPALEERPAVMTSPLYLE", "experiment": "SPR (Horiba XelPlex), ratio to rhFGF2 on the same receptor"}, "[5]": {"target": "T2, FGFR-1 alpha IIIb, P11362", "experiment": "SPR (Horiba XelPlex), receptor immobilised, analyte in flow; given as 'associative binding constants'"}, "[6]": {"conditions": "18 Gy sub-TBI, single dose 24 hr post-IR, different doses, 30 days"}, "[7]": {"conditions": "19.5 Gy sub-TBI, all doses, single dose 24 hr post-IR"}, "[8]": {"conditions": "20.5 Gy sub-TBI, many doses, particularly FGF-P 5-20 mg/kg"}}, "note": "Residues, ends and D or L forms follow the SMILES beside them."}
{"molecule": "CC(C)C[C@@H]1NC(=O)[C@H](C)NC(=O)[C@H](C(C)C)NC(=O)[C@H](Cc2ccc(O)cc2)NC(=O)[C@H](Cc2c[nH]c3ccccc23)NC(=O)[C@H](CO)NC(=O)[C@H]([C@@H](C)O)NC(=O)[C@H](Cc2ccc(O)cc2)NC(=O)[C@H](CCCCN)NC(=O)[C@H](CCCNC(=N)N)NC(=O)[C@H](CO)NC(=O)[C@H](CCCNC(=N)N)NC(=O)[C@H](Cc2ccc(O)cc2)NC(=O)[C@@H](N)CSSC[C@@H](C(=O)O)NC(=O)[C@H](CCCNC(=N)N)NC(=O)[C@H](CCCCN)NC1=O", "note": "[FGF-PT] (HELM PEPTIDE1{C.Y.R.S.R.K.Y.T.S.W.Y.V.A.L.K.R.C}$PEPTIDE1,PEPTIDE1,1:R3-17:R3$$$V2.0; N-terminus and C-terminus assumed)", "values": [{"measurement": "survival", "setting": "[1]; [6]", "result": "Improved survival"}, {"measurement": "weight recovery", "setting": "[1]; [6]", "result": "weight recovery"}, {"measurement": "survival", "setting": "[1]; [7]", "result": "Improved survival"}, {"measurement": "weight recovery", "setting": "[1]; 19.5 Gy sub-TBI, different doses, recovery after severe weight loss", "result": "weight recovery"}, {"measurement": "weight recovery", "setting": "[1]; 20.5 Gy sub-TBI, different doses, recovery after very severe weight loss", "result": "weight recovery"}, {"measurement": "survival", "setting": "[1]; [8]", "result": "Improved survival"}, {"measurement": "dose needed to gain survival benefit", "setting": "[1]", "result": 10, "unit": "mg/kg"}]}
{"molecule": "recombinant human basic FGF (rhFGF2) (from UniProt P09038 143-288) (ligand)", "values": [{"measurement": "Kd", "setting": "FGFR-1 alpha IIIc [2]", "result": 0.00083, "unit": "µM"}, {"measurement": "Kd", "setting": "FGFR-2 alpha IIIc", "result": 0.0017, "unit": "µM"}]}
{"molecule": "rhFGF2: recombinant human basic FGF", "values": [{"measurement": "survival", "setting": "[1]; [7]", "result": "Improved survival"}, {"measurement": "survival", "setting": "[1]; [8]", "result": "Improved survival"}, {"measurement": "dose needed to gain survival benefit", "setting": "[1]", "result": 0.3, "unit": "mg/kg"}]}
{"molecule": "YRSRKYTSWYVALKR (modifications not checked)", "note": "[FGF-PT]", "values": [{"measurement": "fold of binding constant against rhFGF2", "setting": "FGFR-1 alpha IIIc [3]", "result": 1000, "unit": "fold"}, {"measurement": "fold of binding constant against rhFGF2", "setting": "[4]", "result": 1000, "unit": "fold"}, {"measurement": "Kd", "setting": "FGFR-1 alpha IIIc [2]", "result": 1, "unit": "µM"}, {"measurement": "Kd", "setting": "[5]", "result": 1.5, "unit": "µM"}]}
